From EPA's ToxValDB 9.5

Tests used:
Rattus norvegicus [1] = details: oral
Rattus norvegicus [2] = details: short-term, duration: 28 days, oral, gavage, F, Sprague-Dawley
[3] = short-term, duration: 1 weeks, diet, M, Wistar, Body Weight: ~32% weight loss
[4] = short-term, duration: 28 days, F, Sprague-Dawley, Body Weight: Decreased body weight gain (21%)
[5] = short-term, duration: 28 days, F, Sprague-Dawley, Hematological: Decreased MCH and MCHC + Immunotoxicological: Decreased phagocytosis by fixed tissue macrophages in the liver
[6] = short-term, duration: 28 days, F, Sprague-Dawley, Hepatic: Single cell necrosis

O=C(O)C(F)(F)C(F)(F)C(F)(F)C(F)(F)C(F)(F)C(F)(F)C(F)(F)C(F)(F)C(F)(F)F [Perfluorodecanoic acid]
0.625 mg/kg-day: LOEL (Rattus norvegicus [2]; Gene expression_Cyp4a1) | LOEL (Rattus norvegicus [2]; Nonneoplastic effects_Liver - Hepatocyte, cytoplasmic alteration) | LOEL (Rattus norvegicus [2]; Organ weights_R. kidney - Relative) | LOEL (Rattus norvegicus [2]; Organ weights_Spleen - Relative)
50 mg/kg-day: LOAEL (Rattus norvegicus [1]; acute, duration: 1 days, gavage, M, Wistar, Body Weight: 8% weight loss was observed 10-days post-exposure) | NOAEL (Rattus norvegicus [1]; acute, duration: 1 days, gavage, M, Wistar, Neurological: No alteration in performance on novel object recognition test)
2.5 mg/kg-day: NOEL (Rattus norvegicus [2]; Clinical chemistry_Albumin) | LOEL (Rattus norvegicus [2]; Clinical chemistry_Cholesterol) | LOEL (Rattus norvegicus [2]; Clinical chemistry_Indirect bilirubin) | LOEL (Rattus norvegicus [2]; Clinical chemistry_Sorbitol dehydrogenase) | NOEL (Rattus norvegicus [2]; Clinical chemistry_Thyroid stimulating hormone) | NOEL (Rattus norvegicus [2]; Clinical chemistry_Total protein) | NOEL (Rattus norvegicus [2]; Clinical chemistry_Total thyroxine) | NOEL (Rattus norvegicus [2]; Clinical chemistry_Triglycerides) | LOEL (Rattus norvegicus [2]; Hematology_Mean corpuscular hemoglobin concentration) | LOEL (Rattus norvegicus [2]; Hematology_Platelets) | LOEL (Rattus norvegicus [2]; Nonneoplastic effects_Bone marrow - Hypocellularity) | NOEL (Rattus norvegicus [2]; Nonneoplastic effects_Forestomach - Epithelium, hyperplasia) | NOEL (Rattus norvegicus [2]; Nonneoplastic effects_Forestomach - Inflammation, chronic active) | NOEL (Rattus norvegicus [2]; Nonneoplastic effects_Kidney - Nephropathy, chronic progressive) | LOEL (Rattus norvegicus [2]; Nonneoplastic effects_Liver - Hepatocyte, Necrosis) | LOEL (Rattus norvegicus [2]; Nonneoplastic effects_Liver - Hepatocyte, vacuolization cytoplasmic) | NOEL (Rattus norvegicus [2]; Nonneoplastic effects_Lymph nodes - Mandibular, atrophy) | NOEL (Rattus norvegicus [2]; Nonneoplastic effects_Lymph nodes - Mesenteric, atrophy) | NOEL (Rattus norvegicus [2]; Nonneoplastic effects_Nose - Olfactory epithelium, degeneration) | NOEL (Rattus norvegicus [2]; Nonneoplastic effects_Nose - Olfactory epithelium, hyperplasia) | NOEL (Rattus norvegicus [2]; Nonneoplastic effects_Nose - Olfactory epithelium, inflammation, suppurative) | NOEL (Rattus norvegicus [2]; Nonneoplastic effects_Nose - Respiratory epithelium, hyperplasia) | NOEL (Rattus norvegicus [2]; Nonneoplastic effects_Nose - Respiratory epithelium, inflammation, chronic active) | NOEL (Rattus norvegicus [2]; Nonneoplastic effects_Spleen - Atrophy) | NOEL (Rattus norvegicus [2]; Nonneoplastic effects_Spleen - Extramedullary hematopoiesis, increased) | LOEL (Rattus norvegicus [2]; Nonneoplastic effects_Thymus - Atrophy) | NOEL (Rattus norvegicus [2]; Nonneoplastic effects_Thymus - Lymphocyte, apoptosis) | NOEL (Rattus norvegicus [2]; Nonneoplastic effects_Thyroid gland - Follicular cell hypertrophy) | LOEL (Rattus norvegicus [2]; Organ weights_R. adrenal gland - Absolute) | NOEL (Rattus norvegicus [2]; Organ weights_R. adrenal gland - Relative) | LOEL (Rattus norvegicus [2]; Organ weights_R. kidney - Absolute) | LOEL (Rattus norvegicus [2]; Organ weights_Thymus - Absolute) | LOEL (Rattus norvegicus [2]; Organ weights_Thymus - Relative)
0.125 mg/kg-day: NOAEL (Rattus norvegicus [1]; [5])
1.25 mg/kg-day: LOEL (Rattus norvegicus [2]; Clinical chemistry_Alanine aminotransferase) | LOEL (Rattus norvegicus [2]; Clinical chemistry_Aspartate aminotransferase) | LOEL (Rattus norvegicus [2]; Clinical chemistry_Creatinine kinase) | LOEL (Rattus norvegicus [2]; Clinical chemistry_Direct bilirubin) | LOEL (Rattus norvegicus [2]; Clinical chemistry_Free thyroxine) | LOEL (Rattus norvegicus [2]; Clinical chemistry_Total bile acids) | LOEL (Rattus norvegicus [2]; Clinical chemistry_Total bilirubin) | LOEL (Rattus norvegicus [2]; Clinical chemistry_Total triiodothyronine) | LOEL (Rattus norvegicus [2]; Hematology_Erythrocytes) | LOEL (Rattus norvegicus [2]; Hematology_Hematocrit) | LOEL (Rattus norvegicus [2]; Hematology_Hemoglobin) | LOEL (Rattus norvegicus [2]; Hematology_Mean corpuscular volume) | LOEL (Rattus norvegicus [2]; Hematology_Reticulocytes) | LOEL (Rattus norvegicus [2]; Nonneoplastic effects_Liver - Hepatocyte, hypertrophy) | LOEL (Rattus norvegicus [2]; Organ weights_Spleen - Absolute) | LOEL (Rattus norvegicus [2]; Reproductive toxicity_Altered estrous cyclicity)
4.7 mg/kg-day: NOAEL (Rattus norvegicus [1]; [3])
1 mg/kg-day: LOAEL (Rattus norvegicus [1]; [4])
0.5 mg/kg-day: NOAEL (Rattus norvegicus [1]; [4]) | LOAEL (Rattus norvegicus [1]; [6])
0.312 mg/kg-day: LOEL (Rattus norvegicus [2]; Clinical chemistry_Albumin/globulin ratio) | LOEL (Rattus norvegicus [2]; Clinical chemistry_Alkaline phosphatase) | LOEL (Rattus norvegicus [2]; Clinical chemistry_Globulin) | LOEL (Rattus norvegicus [2]; Clinical chemistry_Testosterone) | LOEL (Rattus norvegicus [2]; Organ weights_Thyroid gland - Absolute) | LOEL (Rattus norvegicus [2]; Organ weights_Thyroid gland - Relative)
0.156 mg/kg-day: LOEL (Rattus norvegicus [2]; Gene expression_Acox1) | LOEL (Rattus norvegicus [2]; Gene expression_Cyp2b1) | LOEL (Rattus norvegicus [2]; Gene expression_Cyp2b2) | LOEL (Rattus norvegicus [2]; Organ weights_Liver - Absolute) | LOEL (Rattus norvegicus [2]; Organ weights_Liver - Relative)
0.25 mg/kg-day: LOAEL (Rattus norvegicus [1]; [5]) | NOAEL (Rattus norvegicus [1]; [6])
9.5 mg/kg-day: LOAEL (Rattus norvegicus [1]; [3]) | NOAEL (Rattus norvegicus [1]; short-term, duration: 1 weeks, diet, M, Wistar, Hepatic: Increases in liver weight at ?2.4 mg/kg/day / increases in hepatic cholesterol at 9.5 mg/kg/day)
